Results taken from US20030044776A1, “COMPOSITIONS AND METHODS FOR IDENTIFYING AGENTS THAT ALTER MITOCHONDRIAL PERMEABILITY TRANSITION PORES” (priority 1998, published 2003).

Assays:
Format in all cases: cell-based, human
[1] = system: SH-SY5Y cybrid cells (control and AD); assay: Mitochondrial permeability transition (MPT) assay using DASPMI fluorescence loss rate after ionomycin induction
Protocol: The fluorescent mitochondria-selective dye 2-,4-dimethylaminostyryl-N-methylpyridinium (DASPMI, Molecular Probes, Inc., Eugene, Oreg.) is dissolved in Hank's balanced salt solution (HBSS; Life Technologies, Rockville, Md.) at 1 mM and diluted to 25 μM in warm HBSS. […]
Fluorescence of each microculture in the 96-well plate is quantified immediately using a Molecular Devices fmax fluorimetric plate reader (Molecular Devices Corp., Sunnyvale, Calif.; excitation wavelength=485 nm; emission wavelength=590 nm) and zero-time (t0) fluorescence is recorded. […] Fluorescence decay of DASPMI-loaded, ionomycin induced cells is monitored as a function of time from 0-500 seconds following addition of ionomycin. The maximum negative slope (V-max) is calculated from a subset of the data using analysis software provided by the fluorimetric plate reader manufacturer. In addition, the initial and final signal intensities are determined and the effects of candidate agents that may affect MPT on the rate of signal decay are quantified.
The method described in Example 1 was employed to monitor MPT induced by the calcium ionophore ionomycin and inhibition thereof by cyclosporin. […] Fluorescence detection and monitoring of fluorescence decay as a rate loss function were as described in Example 1. […]

[2] = system: caspase-3 activity in AD cybrids or MixCon cybrids; assay: Caspase-3 activation (DEVD-AMC cleavage) following ionomycin induced MPT; settings: FIG. 11
Protocol: In 96-well microculture plates, cultured human cybrid neuroblastoma SH-SY5Y cells constructed using mitochondria from an individual known to have AD, or from a normal control subject, were cultured in HBSS followed by the addition of atractyloside (as described in Example 5) or ionomycin (as described in Example 1). Control cultures, to which neither atractyloside nor ionomycin were added, were prepared in parallel. Membrane potential was monitored from about 15 minutes (which was, in most cases, sufficient for purposes of the assay) to about 45 to 60 minutes, wherein “about” indicates ±10%.
Caspase-3 activity was assessed by diluting the fluorogenic peptide substrate acetyl-Asp-Glu-Val-Asp (SEQ ID NO:2) conjugated to AMC (7-amino-4-methylcoumarin; the synthetic peptide is referred to as DEVD-AMC; CalBiochem-Novabiochem Corp., San Diego, Calif.; see Walker et al., 1994 Cell 78:343, and Thornberry et al., 1992 Nature 356:768) from a DMSO stock solution into culture media to a final concentration of 20 μM for uptake by cells. Substrate cleavage liberating the AMC fluorophore was measured continuously using a Cytofluor fluorimetric plate reader (model #2350, Millipore Corp., Bedford, Mass.; excitation wavelength=435 nm; emission wavelength=460 nm). Data are presented as ΔRFU (relative fluorescence units). […]

[3] = system: SH-SY5Y neuroblastoma cells; assay: Apoptosis morphology (membrane blebbing) by light microscopy after ionomycin induced MPT; settings: four hours
Protocol: Control SH-SY5Y cells, and control (normal) and AD cybrids produced from SH-SY5Y cells were as described above, and were induced to undergo MPT as described in Example 1. Some cultured cells were pretreated with 1-phenylbiguanide (I) as described in Example 8. Briefly, SH-SY5Y neuroblastoma cells (1×10^5 cells) were rinsed with one volume 1×PBS, and then treated with 10 μM ionomycin (Calbiochem, San Diego, Calif.) in DMEM supplemented with 10% fetal calf serum (FCS) (Gibco, Life Technologies, Grand Island, N.Y.) for 10 minutes, followed by two washes with DMEM (10% FCS). […]
The results using parental SH-SY5Y cells are illustrated in FIG. 10.

For `N.N.N.N.N.N.N.N.N.N.N.N.N.N.[Cl-].[Cl-].[Cl-].[Cl-].[Cl-].[Cl-].[O-2].[O-2].[Ru+3].[Ru+3].[Ru+4]` [ruthenium red], the “DASPMI fluorescence loss rate” value ([1]; 10 nM ruthenium red for 10 minutes prior to MPT induction with ionomycin (5 μM), control and AD cybrid cell lines, FIG. 3) was “significantly greater in cybrid cells that have not been treated with ruthenium red”.

In the case of `N=C(N)NC(=N)Nc1ccccc1` [1-phenylbiguanide], the “induction of caspase-3 activity after ionomycin induced MPT” value ([2]; pretreated with (I) as in Example 8 (2 mM, 20 min), MPT induced by 25 μM ionomycin) is reported as “inhibited”, the “apoptosis morphology, % of cells” value ([3]; parental SH-SY5Y cells pretreated with (I), then 10 μM ionomycin, FIG. 10C) is reported as 10-15% and the “rate of loss of mitochondrial membrane potential (DASPMI loss rate)” value ([1]; 2 mM 1-phenylbiguanide for 20 min prior to MPT induction with 1 μM ionomycin, two AD and one control cybrid cell lines, p<0.001, FIG. 9) is reported as “decreased the rate of loss of mitochondrial membrane potential”.

With `C[C@H](CCC(=O)O)C[C@H](C)C[C@H](C)C(=O)/C=C(\O)[C@H](C)C[C@H](C)C/C=C/[C@@H](C)[C@@H](O)[C@@H](C)[C@@H](O)C[C@@H]1CC[C@@](C)([C@H]2CC[C@@](C)([C@@H](C)O)O2)O1` [ionomycin] the “caspase-3 activity induced by MPT induction” value ([2]; 25 μM ionomycin) was “induces significant caspase-3 activity” and the “cells exhibiting membrane blebbing” value ([3]; parental SH-SY5Y cells, 10 μM ionomycin, untreated cells <5%, FIG. 10B) was “approximately 80%”.
